# How the values were obtained:
# Assay in all cases: ROR modulator nuclear receptor reporter panel, late-stage follow-up, ROR modulator project, cell-based, luciferase reporter (AID 2117)
# [1] = biological target: Bile acid receptor (Homo sapiens) (UniProt Q96RI1); settings: ROR/LXR/VP16, FXR, activation potency
# [2] = biological target: Oxysterols receptor LXR-beta (Homo sapiens) (UniProt P55055); settings: ROR/LXR/VP16, activation potency
# [3] = biological target: Glucose-6-phosphatase catalytic subunit 1 (Homo sapiens) (UniProt P35575); settings: ROR/LXR/VP16, G6Pase Promoter
# Sequence of Glucose-6-phosphatase catalytic subunit 1 (Homo sapiens) (P35575 whole entry, looked up): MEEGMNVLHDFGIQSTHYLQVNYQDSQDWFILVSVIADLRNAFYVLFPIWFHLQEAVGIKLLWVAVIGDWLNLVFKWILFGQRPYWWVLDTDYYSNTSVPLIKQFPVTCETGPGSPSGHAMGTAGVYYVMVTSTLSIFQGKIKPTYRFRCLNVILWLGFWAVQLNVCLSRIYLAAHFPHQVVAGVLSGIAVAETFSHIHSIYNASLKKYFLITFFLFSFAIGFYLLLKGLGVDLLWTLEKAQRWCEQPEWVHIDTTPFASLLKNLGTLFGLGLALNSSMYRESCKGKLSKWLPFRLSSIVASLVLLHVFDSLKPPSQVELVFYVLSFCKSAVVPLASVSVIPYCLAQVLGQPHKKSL
# Sequence of Bile acid receptor (Homo sapiens) (Q96RI1 whole entry, looked up): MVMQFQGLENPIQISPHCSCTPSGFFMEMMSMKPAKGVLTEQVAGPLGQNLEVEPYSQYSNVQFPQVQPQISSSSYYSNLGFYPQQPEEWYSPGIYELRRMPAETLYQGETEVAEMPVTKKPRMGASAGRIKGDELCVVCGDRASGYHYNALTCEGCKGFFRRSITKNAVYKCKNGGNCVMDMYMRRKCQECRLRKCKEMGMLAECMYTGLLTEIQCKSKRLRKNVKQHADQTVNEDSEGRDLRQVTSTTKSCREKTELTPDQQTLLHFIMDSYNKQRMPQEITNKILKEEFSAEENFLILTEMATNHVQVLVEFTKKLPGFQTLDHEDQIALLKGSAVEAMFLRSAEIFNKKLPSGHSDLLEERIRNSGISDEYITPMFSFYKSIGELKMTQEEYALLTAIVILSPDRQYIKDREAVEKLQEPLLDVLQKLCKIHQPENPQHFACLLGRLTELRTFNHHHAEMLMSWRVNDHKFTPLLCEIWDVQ
# Sequence of Oxysterols receptor LXR-beta (Homo sapiens) (P55055 whole entry, looked up): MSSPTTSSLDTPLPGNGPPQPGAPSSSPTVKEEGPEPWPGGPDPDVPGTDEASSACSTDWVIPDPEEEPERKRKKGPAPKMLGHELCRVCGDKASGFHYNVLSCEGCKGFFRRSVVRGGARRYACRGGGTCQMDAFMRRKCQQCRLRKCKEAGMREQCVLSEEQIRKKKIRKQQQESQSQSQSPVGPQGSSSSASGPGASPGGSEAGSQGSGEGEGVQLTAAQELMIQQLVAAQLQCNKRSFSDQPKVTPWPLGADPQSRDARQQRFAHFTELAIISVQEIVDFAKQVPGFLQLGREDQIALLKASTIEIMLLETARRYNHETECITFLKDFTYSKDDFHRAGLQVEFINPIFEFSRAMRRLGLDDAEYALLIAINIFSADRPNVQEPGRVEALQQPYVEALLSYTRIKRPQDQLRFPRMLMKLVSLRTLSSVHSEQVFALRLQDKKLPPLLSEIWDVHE
EC50 [1],EC50 [2],IC50 [3],SMILES
> 20 µM,12 µM,–,O=S(=O)(Nc1ccc(C(O)(C(F)(F)F)C(F)(F)F)cc1)c1ccc(Cl)c2nonc12
12 µM,5.7 µM,–,O=S(=O)(Nc1ccc(C(O)(C(F)(F)F)C(F)(F)F)cc1)c1cccc2ccccc12
> 20 µM,18 µM,–,COc1cccc(S(=O)(=O)Nc2ccc(C(O)(C(F)(F)F)C(F)(F)F)cc2)c1
> 20 µM,> 6 µM,–,O=S(=O)(Nc1ccc(C(O)(C(F)(F)F)C(F)(F)F)cc1)c1cccc2cccnc12
> 20 µM,> 20 µM,8.4 µM,CC(C)(C)c1ccc(S(=O)(=O)Nc2ccc(C(O)(C(F)(F)F)C(F)(F)F)cc2)cc1

# From PubChem BioAssay AID2117 (The Scripps Research Institute Molecular Screening Center, 2009)
